The source of these data is patent US12220438B2, “Protein based cannabis compositions” (IZUN PHARMACEUTICALS CORP., priority 2019, dated 2025).

Like-named read-outs stand apart in the source and are kept apart here.

Data set [1] can be described thus: Attempt to dissolve pure CBD in beverages. The data set is classed as physicochemical. The following applies: 2.7 mg in 25 ml of beverage. As for the experimental part: Samples of still water (Mei Eden bottled water), carbonated water (made by Tempo Soda), alcoholic lager beer (Carlsberg) and orange juice (made by Primor) were prepared using each of CBD-Whey and Whey only. 25 ml of beverage was prepared for each sample, and 45 mg of CBD-Whey (which contains 2.7 mg of CBD). […] The study continued with comparison of CBD-Whey and Whey only. Volunteers, who were Cannabis naïve, were given 8 samples, in a randomized order and were asked to fill a questionnaire relating to appearance, taste and smell of samples. Evaluations were performed by 6 volunteers for each of the 8 samples (four beverages with CBD-Whey and four beverages with Whey only.)

[2] abbreviates: THC in plasma, intravenously, 5 mg/kg single dose.
The mark [3] stands for this setting: male, Sprague-Dawley, rat, plasma, iv, 5 mg/kg.

For the molecule `C=C(C)[C@@H]1CCC(C)=C[C@H]1c1c(O)cc(CCCCC)cc1O` [CBD, cannabidiol], the dissolution in beverages entry in data set [1] is recorded as “crystalline CBD was visible”.

Consider `CCCCCc1cc(O)c2c(c1)OC(C)(C)[C@@H]1CCC(C)=C[C@@H]21` [IV, tetrahydrocannabinol], for which, under setting [2], the “AUC0−∞/D” value is 121 kg·ng·h/mL/mg, the apparent clearance CL/F came to 137.2 mL/min/kg and the Cmax/D worked out at 202 kg·ng/mL/mg. Also, under “THC, intravenously, 5 mg/kg single dose (reference)”, the F is reported as 100%. Under setting [3], the total exposure AUC(0-inf) was found to be 607 ng·h/mL, the AUC(0-t) was determined as 575 ng·h/mL, the peak level (Cmax) was 1010 ng/mL and the time to peak (Tmax) amounted to 5 min. For the same molecule, the half-life (male, Sprague-Dawley, rat, plasma, iv, 5 mg/kg, t1/2, THC in plasma, intravenously, 5 mg/kg single dose) is 648 min. Also, where the note is “male, Sprague-Dawley, rat, plasma, iv, 5 mg/kg, terminal t1/2, after IV administration, analysis that included the 24 hr time point”, the half-life is roughly 600 min.
